Series [1] deals with T1, α1β2γ2 GABAA receptor (Homo sapiens, UniProt P14867+P47870).
T1 construct: expressed in transfected cells
As to the kind of experiment: Patch clamp electrophysiology assay of recombinant α1β2γ2 GABAA receptors (potentiation of 2 μM GABA-evoked Cl- current). The series is classed as cell-based. To be noted: HEK293T cells stably transfected with α1β2γ2 GABAA; whole cell, 2 μM GABA, -80 mV. The gist of the method: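 Whole-cell voltage clamp at −80 mV on HEK293T cells stably expressing human α1β2γ2 GABAA. Compounds applied for 3 min, then 2 μM GABA (EC10–EC20) applied to assess potentiation of Cl− current. Ascending 0.003–10 μM concentrations tested on each cell, 180 s apart, with Rm >500 MΩ, Ra <15 MΩ and leak <100 pA as cell criteria.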
(In general: The patch-clamp technique gives a direct electrical read-out from membranes.)

The nature of series [2]: Mouse PK study (i.v. and p.o.). The series is classed as in vivo. To be noted: plasma, male CD1 mice; for half-life: read-out: T1/2 (hr) i.v. (converted); for Vd: read-out: Vss; for bioavailability: 5 mg/kg p.o. vs 1 mg/kg i.v. The method, then:
Test compounds were dosed to male CD1 mice at 5 mg/kg by oral gavage (p.o.) or 1 mg/kg by intravenous injection (i.v.). Blood samples were taken at 0.083, 0.25, 0.5, 1.0, 3.0, 6.0 and 24 hours post i.v. dosing and at 0.25, 0.5, 1.0, 3.0, 6.0 and 24 hours post p.o. dosing. The plasma concentration of compounds were determined by HPLC.

Series [3] deals with PTZ-treated mice. As to the kind of experiment: Acute PTZ (pentylenetetrazol-induced seizure) assay. In kind it is in vivo, Male CD-1 mice. The note with it: 3 mg/kg oral gavage 60 min prior to PTZ 120 mg/kg s.c.; observed 30 min. The method, then: The anticonvulsant effect of test compounds were assessed in the pentylenetetazol-induced seizure assay in mice similar to methods described in Giardina & Gasior (2009) Curr Protoc Pharmacol., Chapter 5. Male CD-1 mice were housed in groups of five under controlled conditions (temperature of 22±2° C. and 12:12 light-dark cycle, lights on at 8:00 am) and water and food were available ad libitum. The mice were housed for 1 week prior to behavioral testing, at which time they weighed 25-35 g. Pentylenetetrazol (PTZ, Sigma) was dissolved in sterile 0.9% saline at a concentration of 12 mg/mL concentration for subcutaneous administration. Test compounds were formulated and administered via oral gavage at 60 minutes prior to PTZ injection. AU solutions were made fresh and were given in a volume of 10 ml/kg body weight.
Mice were acclimated to the test room for at least 30 min before compound administration. Mice were randomized into at least four test groups (vehicle and at least three doses of the test compound) with 10 mice per group. […] Following the drug pretreatment time, the mice were injected s.c. with PTZ (120 mg/kg). Immediately following the PTZ injection, mice were individually placed into observation chambers (25×15×15 cm) and a three-channel timer was started. Each mouse was continuously observed for 30 min and the following behaviors were recorded by observers blinded to the treatments: 1) latency to clonic convulsions that persist for 3 sec and followed by an absence of righting reflex 2) latency to tonic convulsions, characterized by the rigid extension of all four limbs that exceeded a 90 degree angle with the body 3) latency to death 4) number of clonic and tonic convulsions. Data are presented as mean±S.E.M and one-way analysis of variance with Dunnetfs or Bonferroni's post-hoc test was used to detect significant differences in latency and number between the vehicle and dose group, p values<0.05 were regarded as statistically significant.

The mark [4] stands for this setting: iv, 1 mg/kg i.v., read-out: AUClast (hr*ng/mL) i.v.
Where [5] appears, read: po, 5 mg/kg p.o., read-out: AUClast (hr*ng/mL) p.o.

Molecules are shown by their SMILES. Where two headings read alike, the source gives them in different places.

T1 sequence (P14867 28-456): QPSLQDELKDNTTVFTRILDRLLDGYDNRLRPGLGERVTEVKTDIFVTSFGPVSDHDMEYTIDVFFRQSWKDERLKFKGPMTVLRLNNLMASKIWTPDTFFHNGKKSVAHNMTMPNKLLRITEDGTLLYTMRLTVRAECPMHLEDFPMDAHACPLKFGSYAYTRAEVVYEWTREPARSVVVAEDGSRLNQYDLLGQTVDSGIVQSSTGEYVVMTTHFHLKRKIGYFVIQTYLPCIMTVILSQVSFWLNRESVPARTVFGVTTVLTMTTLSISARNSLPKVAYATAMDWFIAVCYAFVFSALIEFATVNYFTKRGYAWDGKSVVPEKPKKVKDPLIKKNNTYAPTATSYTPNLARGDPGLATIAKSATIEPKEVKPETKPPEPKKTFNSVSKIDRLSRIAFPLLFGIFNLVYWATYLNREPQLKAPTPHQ
T1 sequence (P47870 25-512 limits assumed): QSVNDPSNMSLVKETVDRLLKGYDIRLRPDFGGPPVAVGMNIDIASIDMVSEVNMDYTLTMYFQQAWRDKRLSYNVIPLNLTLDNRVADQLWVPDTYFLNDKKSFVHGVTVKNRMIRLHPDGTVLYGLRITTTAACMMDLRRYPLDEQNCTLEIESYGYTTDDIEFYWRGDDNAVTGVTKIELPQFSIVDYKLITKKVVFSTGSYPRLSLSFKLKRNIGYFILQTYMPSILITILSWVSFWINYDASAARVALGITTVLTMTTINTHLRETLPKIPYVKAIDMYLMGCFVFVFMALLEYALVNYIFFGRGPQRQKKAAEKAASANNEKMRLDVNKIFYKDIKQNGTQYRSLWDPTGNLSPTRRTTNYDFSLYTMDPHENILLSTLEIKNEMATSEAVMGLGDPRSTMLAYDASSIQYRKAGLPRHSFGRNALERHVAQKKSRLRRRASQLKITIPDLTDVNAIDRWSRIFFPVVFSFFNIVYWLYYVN
T1 sequence (P18507 40-475 partner): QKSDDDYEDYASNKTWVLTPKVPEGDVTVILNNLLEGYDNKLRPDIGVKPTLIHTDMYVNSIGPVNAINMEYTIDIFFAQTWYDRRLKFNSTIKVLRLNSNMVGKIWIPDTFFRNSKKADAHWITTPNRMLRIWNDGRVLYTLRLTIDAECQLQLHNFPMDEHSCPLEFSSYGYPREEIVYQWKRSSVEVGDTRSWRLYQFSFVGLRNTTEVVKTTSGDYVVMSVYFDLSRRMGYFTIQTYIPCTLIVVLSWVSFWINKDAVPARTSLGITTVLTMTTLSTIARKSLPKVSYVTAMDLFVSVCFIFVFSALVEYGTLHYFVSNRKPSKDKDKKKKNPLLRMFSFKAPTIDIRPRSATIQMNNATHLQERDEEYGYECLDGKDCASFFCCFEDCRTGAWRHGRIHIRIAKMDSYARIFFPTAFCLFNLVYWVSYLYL

What is called EC50 is the concentration giving half of the maximal effect. For orientation: Cmax means the maximum level reached in the sampled fluid or tissue. A word on the Tmax: it is the time from dosing to the highest level. What is called bioavailability is the share of a dose that reaches the circulation, judged against a reference dose that is usually intravenous. In the case of `Cn1nccc1-n1nnn(CC(=O)[C@H]2CC[C@H]3[C@@H]4CC[C@@H]5C[C@](C)(O)CC[C@@H]5[C@H]4CC[C@]23C)c1=O` [Example 26, 1-(2-((3R,5R,8R,9R,10S,13S,14S,17S)-3-hydroxy-3,13-dimethylhexadecahydro-1H-cyclopenta[a]phenanthren-17-yl)-2-oxoethyl)-4-(1-methyl-1H-pyrazol-5-yl)-1,4-dihydro-5H-tetrazol-5-one], the EC50 in series [1] was 64 nM. In series [2] (iv, 1 mg/kg i.v.), the clearance is 15.7 mL/min/kg, the half-life was 1.39 h and the Vd came to 1.75 L/kg. Moreover, the AUC(0-t) in series [2] (setting [4]) is 1010 ng·h/mL. In series [2] (po, 5 mg/kg p.o.), the Cmax amounted to 827 ng/mL and the time to peak (Tmax) turned out to be 1 h. Moreover, in series [2] (po), the bioavailability is 77.1%. Further, in series [2] (setting [5]), the AUC(0-t) stood at 3910 ng·h/mL. For the same compound, in series [3], the “Clonic Seizure Latency (sec) (Mean)” value was 1547.8 ± 139.2 s, the “Clonic Seizure Number (Mean)” value is given as 0.3 ± 0.2, the “Mortality (%)” value stood at 0.0% and the “Onset of death (sec) (Mean)” value was 1800 + 0.0 sec. In series [3], the “Tonic Seizure Latency (sec) (Mean)” value is recorded as 1800 + 0.0 sec and the “Tonic Seizure Number (Mean)” value is reported as 0.0 + 0.0.

`Cn1nnn(CC(=O)[C@H]2CC[C@H]3[C@@H]4CC[C@@H]5C[C@](C)(O)CC[C@@H]5[C@H]4CC[C@]23C)c1=O` [Example 2, 1-(2-((3R,5R,8R,9R,10S,13S,14S,17S)-3-hydroxy-3,13-dimethylhexadecahydro-1H-cyclopenta[a]phenanthren-17-yl)-2-oxoethyl)-4-methyl-1,4-dihydro-5H-tetrazol-5-one]: the EC50 in series [1] is 110 nM. Moreover, in series [2] (iv, 1 mg/kg i.v.), the clearance is 10.7 mL/min/kg, the half-life is 1.46 h and the Vd was 1.16 L/kg. Also, the AUC(0-t) in series [2] (setting [4]) came out at 1480 ng·h/mL. Besides, in series [2] (po, 5 mg/kg p.o.), the concentration peaked (Cmax) at 1380 ng/mL and the Tmax stood at 1 h. In series [2] (po), this compound had a bioavailability of 66.3%. In series [2] (setting [5]), the AUC(0-t) stood at 4900 ng·h/mL. Moreover, in series [3], the “Clonic Seizure Latency (sec) (Mean)” value amounted to 1085.4 ± 184.6 s, the “Clonic Seizure Number (Mean)” value is reported as 0.7 ± 0.2, the “Mortality (%)” value turned out to be 0.0% and the “Onset of death (sec) (Mean)” value was 1800 + 0.0 sec. In series [3], the “Tonic Seizure Latency (sec) (Mean)” value is 1800 + 0.0 sec and the “Tonic Seizure Number (Mean)” value was 0.0 + 0.0.

The record behind these values is patent US20220089636A1, “TETRAZOLONE SUBSTITUTED STEROIDS AND USE THEREOF” (Beijing Xuanyi PharmaSciences Co., Ltd., priority 2019, published 2022).
